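GI50: concentration for 50% inhibition of growth. TGI: concentration producing complete growth inhibition.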
Key:
Assay in all cases: NCI-60 cell line screen, 384-well format
HCT-15 colon = system: HCT-15 colon
CCRF-CEM leukemia = system: CCRF-CEM leukemia
RXF 393 renal = system: RXF 393 renal
UACC-257 melanoma = system: UACC-257 melanoma
HT29 colon = system: HT29 colon
NCI-H460 NSCLC = system: NCI-H460 NSCLC
NCI/ADR-RES ovarian = system: NCI/ADR-RES ovarian
NCI-H522 lung = system: NCI-H522 lung
TK-10 renal = system: TK-10 renal
LOX IMVI melanoma = system: LOX IMVI melanoma
PC-3 prostate = system: PC-3 prostate
MALME-3M melanoma = system: MALME-3M melanoma
NCI-H322M lung = system: NCI-H322M lung
NCI-H23 lung = system: NCI-H23 lung
HCT-116 colon = system: HCT-116 colon
U251 glioblastoma = system: U251 glioblastoma
RPMI-8226 leukemia = system: RPMI-8226 leukemia
SK-MEL-5 melanoma = system: SK-MEL-5 melanoma
COLO 205 colon = system: COLO 205 colon
NCI-H226 lung = system: NCI-H226 lung
MOLT-4 leukemia = system: MOLT-4 leukemia
ACHN renal = system: ACHN renal
MCF7 breast = system: MCF7 breast
SF-295 CNS = system: SF-295 CNS
UACC-62 melanoma = system: UACC-62 melanoma
SK-MEL-2 melanoma = system: SK-MEL-2 melanoma
K-562 leukemia = system: K-562 leukemia
SK-MEL-28 melanoma = system: SK-MEL-28 melanoma
A498 renal = system: A498 renal
OVCAR-3 ovarian = system: OVCAR-3 ovarian
HS 578T breast = system: HS 578T breast
OVCAR-8 ovarian = system: OVCAR-8 ovarian
HOP-92 NSCLC = system: HOP-92 NSCLC
OVCAR-4 ovarian = system: OVCAR-4 ovarian
SR leukemia = system: SR leukemia
OVCAR-5 ovarian = system: OVCAR-5 ovarian
HCC-2998 colon = system: HCC-2998 colon
SF-539 CNS = system: SF-539 CNS
SNB-19 CNS = system: SNB-19 CNS
HOP-62 NSCLC = system: HOP-62 NSCLC
EKVX NSCLC = system: EKVX NSCLC
T-47D breast = system: T-47D breast
786-0 renal = system: 786-0 renal
KM12 colon = system: KM12 colon
IGROV1 ovarian = system: IGROV1 ovarian
SN12C renal = system: SN12C renal
A549 NSCLC = system: A549 NSCLC
SF-268 CNS = system: SF-268 CNS
DU-145 prostate = system: DU-145 prostate
M14 melanoma = system: M14 melanoma
SNB-75 CNS = system: SNB-75 CNS
SW-620 colon = system: SW-620 colon
MDA-MB-231 breast = system: MDA-MB-231 breast
CAKI-1 renal = system: CAKI-1 renal
BT-549 breast = system: BT-549 breast
MDA-MB-468 breast = system: MDA-MB-468 breast
SK-OV-3 ovarian = system: SK-OV-3 ovarian
MDA-MB-435 melanoma = system: MDA-MB-435 melanoma
HL-60(TB) leukemia = system: HL-60(TB) leukemia

Nc1ncn([C@H]2CC(O)[C@@H](CO)S2)c(=O)n1 (stereo partly specified)
GI50 (HCT-15 colon): 1090 nM
TGI (HCT-15 colon): 22100 nM
GI50 (CCRF-CEM leukemia): 17.3 nM
TGI (CCRF-CEM leukemia): 595 nM
GI50 (RXF 393 renal): 839 nM
TGI (RXF 393 renal): 15100 nM
GI50 (UACC-257 melanoma): 4760 nM
TGI (UACC-257 melanoma): 21400 nM
GI50 (HT29 colon): 1360 nM
TGI (HT29 colon): > 77800 nM
GI50 (NCI-H460 NSCLC): 39.9 nM
TGI (NCI-H460 NSCLC): 491 nM
GI50 (NCI/ADR-RES ovarian): 139 nM
TGI (NCI/ADR-RES ovarian): 1260 nM
GI50 (NCI-H522 lung): 50.1 nM
TGI (NCI-H522 lung): 529 nM
GI50 (TK-10 renal): 4220 nM
TGI (TK-10 renal): > 100000 nM
GI50 (LOX IMVI melanoma): 534 nM
TGI (LOX IMVI melanoma): 3410 nM
GI50 (PC-3 prostate): 1270 nM
TGI (PC-3 prostate): > 75100 nM
GI50 (MALME-3M melanoma): 257 nM
TGI (MALME-3M melanoma): 2030 nM
GI50 (NCI-H322M lung): 1320 nM
TGI (NCI-H322M lung): > 100000 nM
GI50 (NCI-H23 lung): 272 nM
TGI (NCI-H23 lung): 1800 nM
GI50 (HCT-116 colon): 55.8 nM
TGI (HCT-116 colon): 5340 nM
GI50 (U251 glioblastoma): 1920 nM
TGI (U251 glioblastoma): 24800 nM
GI50 (RPMI-8226 leukemia): 622 nM
TGI (RPMI-8226 leukemia): 2680 nM
GI50 (SK-MEL-5 melanoma): 70.6 nM
TGI (SK-MEL-5 melanoma): 1330 nM
GI50 (COLO 205 colon): 239 nM
TGI (COLO 205 colon): 1760 nM
GI50 (NCI-H226 lung): 1710 nM
TGI (NCI-H226 lung): 20700 nM
TGI (MOLT-4 leukemia): 14.4 nM
GI50 (ACHN renal): 111 nM
TGI (ACHN renal): 11700 nM
GI50 (MCF7 breast): 256 nM
TGI (MCF7 breast): > 100000 nM
GI50 (SF-295 CNS): 7650 nM
TGI (SF-295 CNS): > 74700 nM
GI50 (UACC-62 melanoma): 1230 nM
TGI (UACC-62 melanoma): 17300 nM
GI50 (SK-MEL-2 melanoma): 253 nM
TGI (SK-MEL-2 melanoma): 691 nM
GI50 (K-562 leukemia): 200 nM
TGI (K-562 leukemia): 12600 nM
GI50 (SK-MEL-28 melanoma): 340 nM
TGI (SK-MEL-28 melanoma): 2750 nM
GI50 (A498 renal): 146 nM
TGI (A498 renal): 2650 nM
GI50 (OVCAR-3 ovarian): 461 nM
TGI (OVCAR-3 ovarian): 7090 nM
GI50 (HS 578T breast): 1580 nM
TGI (HS 578T breast): 17900 nM
GI50 (OVCAR-8 ovarian): 82.2 nM
TGI (OVCAR-8 ovarian): 2690 nM
GI50 (HOP-92 NSCLC): 284 nM
TGI (HOP-92 NSCLC): > 100000 nM
GI50 (OVCAR-4 ovarian): 2610 nM
TGI (OVCAR-4 ovarian): > 100000 nM
GI50 (SR leukemia): 123 nM
TGI (SR leukemia): 808 nM
GI50 (OVCAR-5 ovarian): 3190 nM
TGI (OVCAR-5 ovarian): > 100000 nM
GI50 (HCC-2998 colon): 124 nM
TGI (HCC-2998 colon): 3280 nM
GI50 (SF-539 CNS): 2020 nM
TGI (SF-539 CNS): 45000 nM
GI50 (SNB-19 CNS): 442 nM
TGI (SNB-19 CNS): > 100000 nM
GI50 (HOP-62 NSCLC): 417 nM
TGI (HOP-62 NSCLC): 5260 nM
GI50 (EKVX NSCLC): 3160 nM
TGI (EKVX NSCLC): > 75400 nM
GI50 (T-47D breast): 7690 nM
TGI (T-47D breast): > 100000 nM
GI50 ([…]-0 renal): 178 nM
TGI (786-0 renal): 10900 nM
GI50 (KM12 colon): 441 nM
TGI (KM12 colon): > 100000 nM
GI50 (IGROV1 ovarian): 2780 nM
TGI (IGROV1 ovarian): > 100000 nM
GI50 (SN12C renal): 251 nM
TGI (SN12C renal): > 39900 nM
GI50 (A549 NSCLC): 155 nM
TGI (A549 NSCLC): 3050 nM
GI50 (SF-268 CNS): 1240 nM
TGI (SF-268 CNS): 24000 nM
GI50 (DU-145 prostate): 366 nM
GI50 (M14 melanoma): 2340 nM
TGI (M14 melanoma): 17600 nM
GI50 (SNB-75 CNS): 7750 nM
TGI (SNB-75 CNS): > 74100 nM
GI50 (SW-620 colon): 377 nM
TGI (SW-620 colon): 16200 nM
GI50 (MDA-MB-231 breast): 251 nM
TGI (MDA-MB-231 breast): 3420 nM
GI50 (CAKI-1 renal): 266 nM
TGI (CAKI-1 renal): 14700 nM
GI50 (BT-549 breast): 619 nM
TGI (BT-549 breast): 6520 nM
GI50 (MDA-MB-468 breast): 153 nM
TGI (MDA-MB-468 breast): 741 nM
GI50 (SK-OV-3 ovarian): 1820 nM
TGI (SK-OV-3 ovarian): 33600 nM
GI50 (MDA-MB-435 melanoma): 1120 nM
TGI (MDA-MB-435 melanoma): > 100000 nM
GI50 (HL-60(TB) leukemia): 114 nM
TGI (HL-60(TB) leukemia): 573 nM
